Test results reported in US10221163B2 (priority 2015, dated 2019).
Where two headings read alike, the source gives them in different places.

What was measured:
[1] = system: Pseudomonas aeruginosa MB9798 vs MB9799
Source text: The strain background was Pseudomonas aeruginosa PAO1.
The strain set was then used as a pair to determine the effect of metallo-β-lactamase inhibitors of Formula I on the MIC of imipenem and/or ceftazidime. A fixed concentration of antibiotic was included in standard microbroth MIC tests, usually at the CLSI (Clinical and Laboratory Standards Institute) breakpoint concentration. A fixed amount of a class A/C beta-lactamase inhibitor was also included to inhibit the resident Pseudomonas AmpC enzyme. A serial titration of the metallo-β-lactamase inhibitor was included and the concentration of metallo-β-lactamase inhibitor which restores susceptibility of the strain to the included antibiotic was recorded. That concentration of metallo-β-lactamase inhibitor was then compared between the two strains to determine the fold difference between the efflux+ (MB9798) and efflux− (MB9799) strains. This was taken as an indication of the extent to which the MBLi is subject to efflux.

[2] = system: Escherichia coli expressing NDM-1 (CLB30005, CLB30016); format: cell-based; details: with imipenem 1 μg/ml; for Escherichia coli MITC95: NDM-1 strain, 95% inhibition of growth; for Escherichia coli expressing NDM-1 (CLB30016) MITC95: 95% inhibition of bacterial growth
Outline: (§1)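 Clinical strains grown overnight on blood agar at 35°C, colonies suspended in saline, diluted 1:100 into 1.1×CAMHB. Test compound titrated with imipenem at 1 μg/ml; incubated 22–24 h at 35°C, growth read by absorbance.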

[3] = system: Serratia marcescens expressing IMP-1 (CL5741); format: cell-based; details: for Serratia marcescens MITC95: IMP-1 strain CL5741, with imipenem 1 μg/ml, 95% inhibition of growth; for Serratia marcescens expressing IMP-1 (CL5741) MITC95: with imipenem 1 μg/ml, 95% inhibition of bacterial growth
Outline: as §1

[4] = system: Klebsiella pneumoniae expressing VIM-1 (IHMA599644); format: cell-based; details: for Klebsiella pneumoniae MITC95: VIM-1 strain IHMA599644, with imipenem 1 μg/ml, 95% inhibition of growth; for Klebsiella pneumoniae expressing VIM-1 (IHMA599644) MITC95: with imipenem 1 μg/ml, 95% inhibition of bacterial growth
Outline: as §1

IMP-1 = IMP-1 (Serratia marcescens, UniProt P52699); assay: biochemical; format: biochemical; details: fluorescence assay, CCF2-FA substrate, 2 pM enzyme, 2 hours at 25° C.; read-out: IMP-1 IC50
Outline: (§2)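 Class B activity is measured in the presence of compound by fluorescence with CCF2-FA after a 2-hour incubation at 25° C. IC50 is taken from a 4-parameter fit of semi-logarithmic dose-response data.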

NDM-1 = NDM-1 (Klebsiella pneumoniae, UniProt C7C422); assay: biochemical; format: biochemical; details: fluorescence assay, CCF2-FA substrate, 1 pM enzyme, 2 hours at 25° C.; read-out: NDM-1 IC50
Outline: as §2

[5] = system: Pseudomonas aeruginosa efflux+ (MB9798), IMP-1; format: cell-based; parameters: Concentration of metallo-β-lactamase inhibitor which restores susceptibility of efflux + (MB9798) strain to imipenem: unit not given here; details: C, D serine β-lactamase inhibitor closely related to relebactam; for P. aeruginosa expressing IMP-1, efflux + (MB9798) MITC95: concentration restoring susceptibility to imipenem at 2 μg/mL in the presence of a class A; for Concentration of metallo-β-lactamase inhibitor which restores susceptibility of efflux + (MB9798) strain to imipenem: imipenem at 2 μg/mL, in the presence of a class A
Outline: (§3)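 P. aeruginosa PAO1-derived IMP-1 strains, efflux+ MB9798 and efflux− MB9799, tested by standard microbroth MIC with imipenem and/or ceftazidime fixed, usually at CLSI breakpoint, plus fixed class A/C β-lactamase inhibitor against AmpC. Inhibitor titrated; concentration restoring susceptibility recorded; MB9798/MB9799 fold difference indicates efflux.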

VIM-1 = VIM-1 (Pseudomonas aeruginosa (strain ATCC 15692 / DSM 22644 / CIP 104116 / JCM 14847 / LMG 12228 / 1C / PRS 101 / PAO1), UniProt A0A0F7KYQ8); assay: biochemical; details: CCF2-FA substrate, 30 pM enzyme, 2 hours at 25° C.
Protocol: Enzyme Activity: Determination of IC50
The Class B enzyme activities were measured in the presence of the test inhibitor in a fluorescence assay against a commercially available substrate consisting of a cephalosporin core linking 7-hydroxycoumarin to fluorescein (CCF2-FA). […] In a 384-well microplate, the test inhibitor was incubated with the metallo-β-lactamase enzyme and the substrate for 2 hours at 25° C. […] The IC50 value was determined from semi-logarithmic plots of enzyme inhibition versus inhibitor concentration, with a curve generated using a 4-parameter fit.

[6] = system: Pseudomonas aeruginosa efflux− (MB9799), IMP-1; format: cell-based; details: C, D serine β-lactamase inhibitor closely related to relebactam; for P. aeruginosa expressing IMP-1, efflux − (MB9799) MITC95: concentration restoring susceptibility to imipenem at 2 μg/mL in the presence of a class A; for Concentration of metallo-β-lactamase inhibitor which restores susceptibility of efflux − (MB9799) strain to imipenem: imipenem at 2 μg/mL, in the presence of a class A
Outline: as §3

[7] = ratio MITC95 PA_9798/MITC95 PA_9799
[8] = fluorescence assay, read-out: VIM-1 IC50
[9] = fold difference between efflux+ (MB9798) and efflux− (MB9799) strains, imipenem at 2 μg/mL

Sequence of NDM-1 (C7C422 whole entry, looked up, species assumed): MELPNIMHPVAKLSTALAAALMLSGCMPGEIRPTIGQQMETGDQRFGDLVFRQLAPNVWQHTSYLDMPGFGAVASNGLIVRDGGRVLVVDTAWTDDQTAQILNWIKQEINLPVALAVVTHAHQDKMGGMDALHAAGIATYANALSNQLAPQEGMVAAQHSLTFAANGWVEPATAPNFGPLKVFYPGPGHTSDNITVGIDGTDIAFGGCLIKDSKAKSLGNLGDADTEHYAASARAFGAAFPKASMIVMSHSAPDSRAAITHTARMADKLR
Sequence of IMP-1 (P52699 whole entry, looked up, species assumed): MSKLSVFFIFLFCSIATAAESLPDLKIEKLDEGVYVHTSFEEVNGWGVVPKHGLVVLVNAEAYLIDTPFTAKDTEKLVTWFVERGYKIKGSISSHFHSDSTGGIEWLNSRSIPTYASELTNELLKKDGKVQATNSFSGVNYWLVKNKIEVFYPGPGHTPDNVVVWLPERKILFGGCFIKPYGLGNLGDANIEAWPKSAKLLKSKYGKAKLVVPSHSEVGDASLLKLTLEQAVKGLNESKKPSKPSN

| SMILES | Efflux ratio [1, 7] | Escherichia coli MITC95 [2] [µM] | Serratia marcescens MITC95 [3] [µM] | Klebsiella pneumoniae MITC95 [4] [µM] | IC50 (IMP-1) [nM] | IC50 (NDM-1) [nM] | P. aeruginosa expressing IMP-1, efflux + (MB9798) MITC95 [5] [µM] | IC50 (VIM-1; VIM-1 IC50, fluorescence assay) [nM] | P. aeruginosa expressing IMP-1, efflux − (MB9799) MITC95 [6] [µM] | Escherichia coli expressing NDM-1 (CLB30016) MITC95 [2] [µM] | Serratia marcescens expressing IMP-1 (CL5741) MITC95 [3] [µM] | Klebsiella pneumoniae expressing VIM-1 (IHMA599644) MITC95 [4] [µM] | IC50 (VIM-1; [8]) [nM] | Efflux ratio [1, 9] | Concentration of metallo-β-lactamase inhibitor which restores susceptibility of efflux + (MB9798) strain to imipenem [5] | Concentration of metallo-β-lactamase inhibitor which restores susceptibility of efflux − (MB9799) strain to imipenem [6] |
| --- | --- | --- | --- | --- | --- | --- | --- | --- | --- | --- | --- | --- | --- | --- | --- | --- |
| Nc1nc2c(-c3ccc(S(=O)(=O)NC4CNC[C@H]4N)c(S(N)(=O)=O)c3-c3nn[nH]n3)cccc2[nH]1 (stereo in doubt) [Example 322, 4-(2-Amino-1H-benzo[d]imidazol-4-yl)-N1-((3S,4R)-4-aminopyrrolidin-3-yl)-3-(2H-tetrazol-5-yl)benzene-1,2-disulfonamide] | 0.83 | 0.5208 | 1.042 | 1.302 | 0.738 | 0.0536 | 0.651 | 0.182 | 0.7813 |  |  |  |  |  |  |  |
| NCCNS(=O)(=O)c1ccc(-c2cccc3oc(N)nc23)c(-c2nn[nH]n2)c1S(N)(=O)=O [Example 11, 4-(2-aminobenzo[d]oxazol-4-yl)-N^1-(2-aminoethyl)-3-(2H-tetrazol-5-yl)benzene-1,2-disulfonamide] | 1.00 |  |  |  |  |  | 0.3906 |  | 0.3906 | 0.7813 | 0.7813 | 1.563 | 0.0502 |  |  |  |
| Nc1nc2c(-c3ccc(S(=O)(=O)N[C@@H](N)c4ccccn4)c(S(N)(=O)=O)c3-c3nnn[nH]3)cccc2s1.O=C(O)C(F)(F)F [Example 99, (R)-(4-(2-aminobenzo[d]thiazol-4-yl)-2-sulfamoyl-3-(1H-tetrazol-5-yl)phenylsulfonamido)(pyridin-2-yl)methanaminium 2,2,2-trifluoroacetate] | 8.00 |  |  |  |  |  | 25 |  | 3.125 | 12.5 | 6.25 | 25 | 0.499 |  |  |  |
| Nc1nc2c(-c3ccc(S(=O)(=O)NC4C[C@@H]5CN[C@H]4C5)c(S(N)(=O)=O)c3-c3nnn[nH]3)cccc2s1.O=CO (stereo partly drawn) [Example 119] | 0.50 |  |  |  |  |  | 0.7813 |  | 1.563 | 1.563 | 1.563 | 3.125 |  |  |  |  |
| C[C@H](CN)NS(=O)(=O)c1ccc(-c2cccnc2N)c(-c2nn[nH]n2)c1S(N)(=O)=O [Example 212, (R)-N1-(1-amino-propan-2-yl)-4-(2-aminopyridin-3-yl)-3-(2H-tetrazol-5-yl)benzene-1,2-disulfonamide] | 1.00 |  |  |  |  |  | 1.563 |  | 1.563 | 0.3906 | 0.7813 | 1.563 | 0.154 |  |  |  |
| C[N+]1(C)CC[C@@H](NS(=O)(=O)c2ccc(-c3cccc4[nH]c(N)nc34)c(-c3nn[nH]n3)c2S(N)(=O)=O)C1.[Cl-] [Example 233, (R)-3-((4-(2-amino-1H-benzo[d]imidazol-4-yl)-2-sulfamoyl-3-(2H-tetrazol-5-yl)phenyl)sulfonamido)-1,1-dimethylpyrrolidin-1-ium chloride] | 1.00 |  |  |  | 0.305 | 0.0225 | 1.563 |  | 1.563 | 0.3906 | 0.3906 | 1.563 |  |  |  |  |
| C[N+]1(CCN)CC[C@H](NS(=O)(=O)c2ccc(-c3cccc4[nH]c(N)nc34)c(-c3nn[nH]n3)c2S(N)(=O)=O)C1.O=C([O-])O (stereo partly drawn) [Example 249, (3S)-3-{[4-(2-amino-1H-1,3-benzodiazol-4-yl)-2-sulfamoyl-3-(2H-1,2,3,4-tetrazol-5-yl)benzene]sulfonamido}-1-(2-aminoethyl)-1-methylpyrrolidin-1-ium methaneperoxoate] | 1.00 | 0.3906 | 1.563 | 1.563 | 0.342 | 0.0153 | 0.7813 |  | 0.7813 |  |  |  |  |  |  |  |
| NCc1sc(N)nc1-c1cccc(-c2ccc(S(=O)(=O)N[C@@H]3CCNC3)c(S(N)(=O)=O)c2-c2nnn[nH]2)c1 [Example 432] |  | 0.7813 | 0.7813 | 1.563 |  |  |  | 0.387 |  |  |  |  |  | 1.00 | 0.7813 | 0.7813 |
| C[C@H](N)Cc1nc2c(-c3ccc(S(=O)(=O)N[C@@H]4CCNC4)c(S(N)(=O)=O)c3-c3nn[nH]n3)cccc2[nH]1 [Example 441, 4-(2-((S)-2-Aminopropyl)-1H-benzo[d]imidazol-4-yl)-N1-((R)-pyrrolidin-3-yl)-3-(2H-tetrazol-5-yl)benzene-1,2-disulfonamide] |  | 1.563 | 1.563 | 1.563 | 1.23 | 0.0811 |  |  |  |  |  |  | 0.15 |  | 1.563 | 0.7813 |
| NCCNC(=O)c1cc(Cl)cc(-c2ccc(S(=O)(=O)N[C@@H]3CCNC3)c(S(N)(=O)=O)c2-c2nn[nH]n2)c1N [Example 450] |  | 1.563 | 1.563 | 1.563 |  |  |  |  |  |  |  |  | 0.276 | 2.00 | 1.563 | 0.7813 |
| CNc1nc2c(-c3ccc(S(=O)(=O)NCCN)c(S(N)(=O)=O)c3-c3nn[nH]n3)cccc2[nH]1 [Example 467, N1-(2-aminoethyl)-4-(2-(methylamino)-1H-benzo[d]imidazol-4-yl)-3-(2H-tetrazol-5-yl)benzene-1,2-disulfonamide] |  | 0.7813 | 0.7813 | 1.563 |  |  |  |  |  |  |  |  | 0.12 | 0.50 | 0.3906 | 0.7813 |
